Experimental data taken from patent US10526316B2, “Quinoxaline and pyridopyrazine derivatives as PI3Kβ inhibitors” (Janssen Pharmaceutica NV, priority 2015, dated 2020).
Read-outs that look alike come from different tables or passages of the source.

Assays:
[1] = system: Akt phosphorylated at Thr308 in PC-3 cells; assay: Cellular assay: phosphorylation of Akt at Thr308 in PC-3 cells (MSD ELISA); type: cell-based; details: PC-3 cells, 60 min compound incubation, MSD ELISA, read-out: IC50 pAkt_Thr308
How it was run: (§1)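 PC-3 cells were exposed to compound or 0.3% DMSO for 60 min at 37° C, 5% CO2, then lysed in ice-cold buffer. Phospho-Akt was captured on site-specific antibody-coated plates and detected with Sulfo-tag anti-total Akt by electrochemiluminescence. IC50 values came from five-concentration response curves.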

kinase enzymes [2] = target: T1, kinase enzymes (Homo sapiens, UniProt P48736); assay: Enzyme binding assay (KINOMEscan, DiscoveRx), further kinases of Table A; details: PIK3Cγ_h
T1 construct: purchased DiscoveRx Corporation, San Diego (contract service, KINOMEscan)
T1 sequence (P48736 whole entry): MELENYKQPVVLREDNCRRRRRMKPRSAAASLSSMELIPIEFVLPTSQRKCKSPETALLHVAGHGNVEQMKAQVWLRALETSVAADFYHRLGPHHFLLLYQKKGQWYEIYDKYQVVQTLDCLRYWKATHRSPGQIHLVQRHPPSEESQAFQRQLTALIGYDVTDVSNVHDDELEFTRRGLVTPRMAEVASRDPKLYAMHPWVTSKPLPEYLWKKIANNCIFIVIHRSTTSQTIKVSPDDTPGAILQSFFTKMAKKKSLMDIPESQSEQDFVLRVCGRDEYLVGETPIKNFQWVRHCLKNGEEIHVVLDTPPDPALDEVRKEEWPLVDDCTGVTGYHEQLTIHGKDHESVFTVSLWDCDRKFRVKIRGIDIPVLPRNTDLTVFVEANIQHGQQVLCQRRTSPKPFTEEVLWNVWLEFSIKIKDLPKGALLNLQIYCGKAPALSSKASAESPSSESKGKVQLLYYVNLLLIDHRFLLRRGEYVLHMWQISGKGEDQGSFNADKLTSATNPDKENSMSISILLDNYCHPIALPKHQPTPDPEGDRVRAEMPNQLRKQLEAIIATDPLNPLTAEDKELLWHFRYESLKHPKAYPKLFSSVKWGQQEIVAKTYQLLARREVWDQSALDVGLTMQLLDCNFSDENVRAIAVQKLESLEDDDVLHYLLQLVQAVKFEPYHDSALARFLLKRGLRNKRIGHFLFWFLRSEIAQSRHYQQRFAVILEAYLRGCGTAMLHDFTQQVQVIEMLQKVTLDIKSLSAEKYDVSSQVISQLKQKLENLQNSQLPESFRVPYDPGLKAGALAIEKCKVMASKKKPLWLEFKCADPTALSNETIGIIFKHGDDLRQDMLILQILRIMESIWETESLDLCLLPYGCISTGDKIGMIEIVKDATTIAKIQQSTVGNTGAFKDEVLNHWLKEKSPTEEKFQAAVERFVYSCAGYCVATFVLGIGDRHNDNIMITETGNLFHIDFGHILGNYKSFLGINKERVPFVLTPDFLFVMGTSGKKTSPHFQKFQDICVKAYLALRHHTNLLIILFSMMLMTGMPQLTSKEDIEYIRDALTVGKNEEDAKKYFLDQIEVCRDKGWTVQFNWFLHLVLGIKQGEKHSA
How it was run: (§2)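 Uses KINOMEscan technology to determine binding affinity toward the kinase enzymes.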

kinase enzymes [3] = target: T2, kinase enzymes (Homo sapiens, UniProt P42336); assay: as above; details: PIK3Cα_h
T2 construct: purchased DiscoveRx Corporation, San Diego (contract service, KINOMEscan)
T2 sequence (P42336 whole entry): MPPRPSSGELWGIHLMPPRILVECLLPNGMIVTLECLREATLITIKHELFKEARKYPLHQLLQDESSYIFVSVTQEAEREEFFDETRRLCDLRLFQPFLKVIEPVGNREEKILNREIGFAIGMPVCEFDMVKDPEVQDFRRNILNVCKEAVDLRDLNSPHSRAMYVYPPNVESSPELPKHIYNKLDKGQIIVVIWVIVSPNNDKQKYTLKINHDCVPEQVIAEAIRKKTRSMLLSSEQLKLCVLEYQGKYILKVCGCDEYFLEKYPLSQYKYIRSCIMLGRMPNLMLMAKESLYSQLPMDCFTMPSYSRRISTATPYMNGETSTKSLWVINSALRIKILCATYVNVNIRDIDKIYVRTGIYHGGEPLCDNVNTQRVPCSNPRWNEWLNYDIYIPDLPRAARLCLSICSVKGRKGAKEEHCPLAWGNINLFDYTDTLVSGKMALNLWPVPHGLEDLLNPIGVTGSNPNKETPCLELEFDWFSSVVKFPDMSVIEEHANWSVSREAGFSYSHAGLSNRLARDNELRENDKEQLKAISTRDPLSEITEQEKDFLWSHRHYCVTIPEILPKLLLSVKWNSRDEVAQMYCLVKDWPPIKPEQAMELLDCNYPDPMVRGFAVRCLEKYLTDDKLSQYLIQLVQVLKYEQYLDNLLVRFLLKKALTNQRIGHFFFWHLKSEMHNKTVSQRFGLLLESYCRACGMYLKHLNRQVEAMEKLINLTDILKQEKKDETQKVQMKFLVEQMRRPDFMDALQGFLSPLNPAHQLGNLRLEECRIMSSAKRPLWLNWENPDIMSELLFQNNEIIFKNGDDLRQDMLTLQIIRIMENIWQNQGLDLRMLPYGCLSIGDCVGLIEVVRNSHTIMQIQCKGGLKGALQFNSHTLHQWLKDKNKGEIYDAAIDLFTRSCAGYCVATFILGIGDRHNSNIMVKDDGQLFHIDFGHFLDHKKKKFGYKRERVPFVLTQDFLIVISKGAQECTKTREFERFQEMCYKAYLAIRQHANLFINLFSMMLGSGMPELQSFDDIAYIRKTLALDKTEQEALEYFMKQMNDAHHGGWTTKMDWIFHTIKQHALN
How it was run: as §2

kinase enzymes [4] = target: T3, kinase enzymes (Homo sapiens, UniProt P42345); assay: as above; details: MTOR_h
T3 construct: purchased DiscoveRx Corporation, San Diego (contract service, KINOMEscan)
How it was run: as §2

PI3Kβ = target: T4, PI3Kβ (Homo sapiens, UniProt P42338); assay: Enzyme binding assay (KINOMEscan, DiscoveRx); details: PIK3Cβ_h, read-out: Kd PIK3Cβ_h
T4 construct: purchased DiscoveRx Corporation, San Diego (contract service, KINOMEscan)
T4 sequence (P42338 whole entry): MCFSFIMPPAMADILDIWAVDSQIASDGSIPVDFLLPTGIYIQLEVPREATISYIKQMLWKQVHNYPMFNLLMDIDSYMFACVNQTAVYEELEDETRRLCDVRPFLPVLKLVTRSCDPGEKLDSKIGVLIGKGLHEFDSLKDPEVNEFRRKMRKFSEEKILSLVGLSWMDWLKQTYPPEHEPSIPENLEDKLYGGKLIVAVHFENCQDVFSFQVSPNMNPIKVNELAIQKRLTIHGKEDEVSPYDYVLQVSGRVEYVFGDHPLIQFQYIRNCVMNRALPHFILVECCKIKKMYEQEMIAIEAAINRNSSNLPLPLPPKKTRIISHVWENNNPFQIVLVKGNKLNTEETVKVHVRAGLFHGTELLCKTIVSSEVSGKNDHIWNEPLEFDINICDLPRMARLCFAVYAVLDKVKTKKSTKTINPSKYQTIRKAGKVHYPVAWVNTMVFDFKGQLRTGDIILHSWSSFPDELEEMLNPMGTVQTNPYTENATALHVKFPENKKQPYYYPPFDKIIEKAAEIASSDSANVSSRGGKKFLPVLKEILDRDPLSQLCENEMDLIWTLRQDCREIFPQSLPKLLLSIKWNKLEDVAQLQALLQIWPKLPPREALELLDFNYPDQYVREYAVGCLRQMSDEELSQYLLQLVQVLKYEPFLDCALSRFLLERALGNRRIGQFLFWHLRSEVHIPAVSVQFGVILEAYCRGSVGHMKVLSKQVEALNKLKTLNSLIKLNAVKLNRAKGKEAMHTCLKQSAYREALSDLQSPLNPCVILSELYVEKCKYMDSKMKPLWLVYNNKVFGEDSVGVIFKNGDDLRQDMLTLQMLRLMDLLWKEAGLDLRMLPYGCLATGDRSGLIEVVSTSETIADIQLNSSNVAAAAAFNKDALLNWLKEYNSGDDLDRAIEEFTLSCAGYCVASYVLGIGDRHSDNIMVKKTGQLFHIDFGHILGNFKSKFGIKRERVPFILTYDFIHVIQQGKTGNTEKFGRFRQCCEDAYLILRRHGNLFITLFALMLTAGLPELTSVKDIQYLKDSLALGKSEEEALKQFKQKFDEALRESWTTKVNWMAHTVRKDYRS
How it was run: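 Using the KINOMEscan format, the enzyme binding affinity of each compound was determined. Each value is the inhibitor binding constant, Kd (nM).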

PI3Kδ = target: T5, PI3Kδ (Homo sapiens, UniProt O00329); assay: Enzyme binding assay (KINOMEscan, DiscoveRx); details: PIK3Cδ_h
T5 construct: purchased DiscoveRx Corporation, San Diego (contract service, KINOMEscan)
T5 sequence (O00329 1-1044): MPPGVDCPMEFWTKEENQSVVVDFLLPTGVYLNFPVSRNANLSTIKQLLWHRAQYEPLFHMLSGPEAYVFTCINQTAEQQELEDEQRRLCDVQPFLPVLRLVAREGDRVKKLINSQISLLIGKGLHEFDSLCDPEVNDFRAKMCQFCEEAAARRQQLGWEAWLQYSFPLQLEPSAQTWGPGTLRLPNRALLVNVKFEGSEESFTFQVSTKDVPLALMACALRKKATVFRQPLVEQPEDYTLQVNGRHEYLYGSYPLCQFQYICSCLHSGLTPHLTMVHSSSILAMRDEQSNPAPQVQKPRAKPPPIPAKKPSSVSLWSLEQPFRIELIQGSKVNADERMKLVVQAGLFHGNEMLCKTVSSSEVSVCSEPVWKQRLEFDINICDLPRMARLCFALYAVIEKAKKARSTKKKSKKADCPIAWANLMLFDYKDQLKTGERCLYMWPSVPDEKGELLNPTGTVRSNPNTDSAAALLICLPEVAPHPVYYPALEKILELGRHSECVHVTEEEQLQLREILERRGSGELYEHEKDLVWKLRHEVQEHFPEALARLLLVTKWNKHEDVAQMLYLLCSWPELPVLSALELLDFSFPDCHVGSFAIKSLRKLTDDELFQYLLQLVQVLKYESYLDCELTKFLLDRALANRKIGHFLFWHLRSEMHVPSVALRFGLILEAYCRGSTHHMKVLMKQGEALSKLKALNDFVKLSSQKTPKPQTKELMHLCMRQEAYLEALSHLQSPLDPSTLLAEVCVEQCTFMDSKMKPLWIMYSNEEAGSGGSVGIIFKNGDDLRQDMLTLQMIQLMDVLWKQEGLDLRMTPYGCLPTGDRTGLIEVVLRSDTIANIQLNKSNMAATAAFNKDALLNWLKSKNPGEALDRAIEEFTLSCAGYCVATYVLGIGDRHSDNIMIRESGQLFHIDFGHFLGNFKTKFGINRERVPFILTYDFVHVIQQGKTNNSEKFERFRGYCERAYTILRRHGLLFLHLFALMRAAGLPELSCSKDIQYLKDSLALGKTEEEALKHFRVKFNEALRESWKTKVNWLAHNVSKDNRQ
How it was run: as §2

[5] = system: Akt phosphorylated at Ser473 in PC-3 cells; assay: Cellular assay: phosphorylation of Akt at Ser473 in PC-3 cells (MSD ELISA); type: cell-based; details: PC-3 cells, 60 min compound incubation, MSD ELISA, read-out: IC50 pAkt_S473
How it was run: as §1

IC50 [1]	Kd (kinase enzymes [2])	Kd (kinase enzymes [3])	Kd (kinase enzymes [4])	Kd (PI3Kβ)	Kd (PI3Kδ)	IC50 [5]	IC50 ([1]; Homo sapiens, PC-3, 1 h)	IC50 ([5]; Homo sapiens, PC-3, 1 h)	Compound
> 0.513 µM	24.5 µM	22.4 µM	> 30.2 µM	0.813 µM	21.4 µM	> 0.513 µM	–	–	CC(Nc1ccc(F)c(F)c1)c1cc(C(=O)NCCCO)cc2ncc(N3CCOCC3)nc12 (single isomer, unassigned) [Compound 280b]
> 0.513 µM	7.41 µM	6.17 µM	> 30.2 µM	0.151 µM	3.47 µM	> 0.513 µM	–	–	CC(Nc1ccc(F)c(F)c1)c1cc(C(=O)NCCN(C)C)cc2ncc(N3CCOCC3)nc12 (single isomer, unassigned) [Compound 281b]
> 0.513 µM	> 30.2 µM	10.2 µM	25.7 µM	0.182 µM	5.75 µM	> 0.513 µM	–	–	CC(C)NCCNC(=O)c1cc(C(C)Oc2ccc(F)c(F)c2)c2nc(N3CCOCC3)cnc2c1 (single isomer, unassigned) [Compound 286a]
0.034 µM	20.9 µM	1.74 µM	> 30.2 µM	0.003 µM	0.234 µM	0.031 µM	–	–	CC(Nc1ccc(F)c(F)c1)c1cc(C(=O)N2CCN3CCC[C@H]3C2)cc2ncc(N3CCOCC3)nc12 (single isomer, unassigned) [Compound 287a]
> 0.513 µM	> 30.2 µM	> 30.2 µM	> 30.2 µM	14.8 µM	> 30.2 µM	> 0.513 µM	–	–	CC(Nc1cc(F)c(F)c(F)c1)c1cc(C(=O)NCC(C)(C)O)cc2ncc(N3CCOCC3)nc12 (single isomer, unassigned) [Compound 292b]
> 0.513 µM	> 30.2 µM	6.46 µM	14.5 µM	0.288 µM	6.76 µM	> 0.513 µM	–	–	Cc1ccc(NC(C)c2cc(C(=O)NCCO)cc3ncc(N4CCOCC4)nc23)cc1F (single isomer, unassigned) [Compound 295a]
0.016 µM	3.24 µM	1.38 µM	> 30.2 µM	0.001 µM	0.17 µM	0.023 µM	–	–	CC(Nc1cc(F)c(F)c(F)c1)c1cc(C(=O)N(C)C2CCNC2)cc2ncc(N3CCOCC3)nc12 (single isomer, unassigned) [Compound 296a]
0.339 µM	> 30.2 µM	> 30.2 µM	> 30.2 µM	0.014 µM	9.33 µM	0.468 µM	–	–	CC(Nc1cc(F)c(F)c(F)c1)c1cc(C(=O)N(C)C2CCNC2)cc2ncc(N3CCOCC3)nc12 (single isomer, unassigned) [Compound 296b]
0.204 µM	15.1 µM	17 µM	> 30.2 µM	0.026 µM	6.31 µM	0.2 µM	–	–	CN[C@H]1CCN(C(=O)c2cc(C(C)Nc3cc(F)c(F)c(F)c3)c3nc(N4CCOCC4)cnc3c2)C1 (single isomer, unassigned) [Compound 297a]
0.003 µM	1.48 µM	1.02 µM	> 30.2 µM	0.0005 µM	0.112 µM	0.007 µM	–	–	CN[C@H]1CCN(C(=O)c2cc(C(C)Nc3cc(F)c(F)c(F)c3)c3nc(N4CCOCC4)cnc3c2)C1 (single isomer, unassigned) [Compound 297b]
> 0.513 µM	> 30.2 µM	24 µM	> 30.2 µM	0.186 µM	10.2 µM	0.501 µM	–	–	CC(Oc1ccc(F)c(F)c1)c1cc(C(=O)N2CC[C@@H](N(C)C)C2)cc2ncc(N3CCOCC3)nc12 (single isomer, unassigned) [Compound 298b]
0.056 µM	11 µM	6.31 µM	> 30.2 µM	0.001 µM	0.269 µM	~0.045 µM	–	–	CC(Oc1ccc(F)c(F)c1)c1cc(C(=O)NCCN(C)C)cc2ncc(N3CCOCC3)nc12 (single isomer, unassigned) [Compound 299a]
0.039 µM	11.7 µM	1.1 µM	> 30.2 µM	0.003 µM	0.186 µM	0.054 µM	–	–	CC(Nc1ccc(F)c(F)c1)c1cc(C(=O)N2CCC[C@H](O)C2)cc2ncc(N3CCOCC3)nc12 (single isomer, unassigned) [Compound 302b]
0.008 µM	1.74 µM	1.1 µM	20 µM	0.0001 µM	0.059 µM	0.009 µM	–	–	CC(Nc1cc(F)c(F)c(F)c1)c1cc(C(=O)NCCN(C)C)cc2ncc(N3CCOCC3)nc12 (single isomer, unassigned) [Compound 309a]
0.282 µM	5.62 µM	4.9 µM	> 30.2 µM	0.018 µM	2.34 µM	0.363 µM	–	–	CC(Nc1cc(F)c(F)c(F)c1)c1cc(C(=O)NCCN(C)C)cc2ncc(N3CCOCC3)nc12 (single isomer, unassigned) [Compound 309b]
–	> 30.2 µM	15.5 µM	> 10 µM	1.15 µM	10 µM	–	> 0.513 µM	> 0.513 µM	CC(C)NCCNC(=O)c1cc(C(C)Nc2ccc(Cl)c(F)c2)c2nc(N3CCOCC3)cnc2c1 (single isomer, unassigned) [Compound 312a]
> 0.513 µM	28.2 µM	5.13 µM	20 µM	0.026 µM	1.86 µM	> 0.513 µM	–	–	CC(C)NCCNC(=O)c1cc(C(C)Nc2ccc(Cl)c(F)c2)c2nc(N3CCOCC3)cnc2c1 (single isomer, unassigned) [Compound 312b]
0.166 µM	26.3 µM	5.01 µM	> 30.2 µM	0.003 µM	0.851 µM	–	–	0.257 µM	CC(Oc1ccc(Cl)c(F)c1)c1cc(C(=O)N(C)CCN(C)C)cc2ncc(N3CCOCC3)nc12 (single isomer, unassigned) [Compound 313a]
> 0.513 µM	> 30.2 µM	14.5 µM	> 30.2 µM	0.302 µM	5.49 µM	> 0.513 µM	–	–	CC(Oc1ccc(Cl)c(F)c1)c1cc(C(=O)N(C)CCN(C)C)cc2ncc(N3CCOCC3)nc12 (single isomer, unassigned) [Compound 313b]
> 0.513 µM	30.2 µM	17.4 µM	19.1 µM	0.417 µM	6.03 µM	~0.407 µM	–	–	CC(C)NCCNC(=O)c1cc(C(C)Oc2cccc(F)c2)c2nc(N3CCOCC3)cnc2c1 (single isomer, unassigned) [Compound 314a]
0.002 µM	1.22 µM	0.466 µM	18.6 µM	0.0002 µM	0.033 µM	0.005 µM	–	–	CNCCN(C)C(=O)c1cc(C(C)Nc2cc(F)c(F)c(F)c2)c2nc(N3CCOCC3)cnc2c1 (single isomer, unassigned) [Compound 335a]

Compound	IC50 [1]	Kd (kinase enzymes [2])	Kd (kinase enzymes [3])	Kd (kinase enzymes [4])	Kd (PI3Kβ)	Kd (PI3Kδ)	IC50 [5]	IC50 ([1]; Homo sapiens, PC-3, 1 h)	IC50 ([5]; Homo sapiens, PC-3, 1 h)
CC(Oc1cccc(F)c1)c1cc(C(=O)N(C)C)cc2ncc(N3CCOCC3)nc12 (single isomer, unassigned) [Compound 339a]	0.407 µM	10.7 µM	4.57 µM	> 30.2 µM	0.112 µM	2.09 µM	> 0.513 µM	–	–
